According to patent US8252294B2, “Methods of screening for compounds that inhibit the biosynthesis of GPI in malaria parasites” (Eisai R&D Management Co., Ltd., priority 2002, dated 2012):

What was measured:
ScGWT1-expressing yeast = assay: Growth inhibition of GWT1-disrupted yeast expressing S. cerevisiae GWT1 (pGAP-ScGWT1), culture turbidity; format: cell-based; details: for culture turbidity at 660 nm: pGAP-ScGWT1 yeast, 30° C., two days
Procedure: (§1) An expression cassette was constructed by inserting the S. cerevisiae GWT1 terminator, and the S. cerevisiae GAPDH promoter and multi-cloning site into the SacI-KpnI site of the single-copy vector pRS316. S. cerevisiae GWT1 and opfGWT1 were inserted into the multi-cloning site to prepare pGAP-ScGWT1 and pGAP-opfGWT1 plasmids, respectively. These plasmids were introduced into the GWT1 disruptant. Serial two-fold dilutions of compound (1) were prepared using YPAD to make the highest final concentration 50 μg/ml. A 50 μl aliquot of the diluted compound was added to each well of a 96-well plate. Overnight cultures of yeast cells comprising each plasmid were diluted 1000-fold and then a 50 μl aliquot of the dilution was added to each well. The plates were incubated at 30° C. for two days, and then culture turbidity was determined at 660 nm (FIG. 2 and Table 1).

opfGWT1-expressing yeast = assay: Growth inhibition of GWT1-disrupted yeast expressing opfGWT1 (pGAP-opfGWT1), culture turbidity; format: cell-based, S. cerevisiae; details: for culture turbidity at 660 nm: pGAP-opfGWT1 yeast, 30° C., two days
Procedure: as §1

[1] = test system: P. falciparum FCR3 strain; assay: Antimalarial activity in red blood cell culture system (infection rate by Giemsa staining); format: cell-based; details: human red blood cells infected with P. falciparum FCR3, 48 hours, Giemsa staining (FIG. 3)
Procedure: Specifically, a test compound was dissolved in 100% DMSO, diluted with a medium, and an 80 μl aliquot of the dilution was added to each well of a 96-well culture plate. P. falciparum FCR3 strain was pre-cultured in RPMI1640 medium containing 10% human serum at 37° C., and then 20 μl of the cultured cells (containing 10% red blood cells) was added to each well. At this time, 0.47% of red blood cells were infected. After culturing under 5% O2, 5% CO2, and 90% N2 at 37° C. for 48 hours, the malaria parasites were stained using Giemsa staining. The number of protozoan-infected red blood cells was determined in order to estimate infection rate (FIG. 3).

SMILES | inhibition at 25 µg/mL (ScGWT1-expressing yeast; Saccharomyces cerevisiae, ScGWT1-expressing yeast, compound at 25 μg/ml) [%] | viability of yeast (ScGWT1-expressing yeast; ScGWT1-expressing yeast, compound at 50 μg/ml) | culture turbidity at 660 nm (ScGWT1-expressing yeast; compound 6.25 μg/ml) | culture turbidity at 660 nm (ScGWT1-expressing yeast; compound 12.5 μg/ml) | culture turbidity at 660 nm (ScGWT1-expressing yeast; compound 25 μg/ml) | culture turbidity at 660 nm (ScGWT1-expressing yeast; compound 50 μg/ml) | inhibition at 25 µg/mL (opfGWT1-expressing yeast; Saccharomyces cerevisiae, opfGWT1-expressing yeast, compound at 25 μg/ml) [%] | viability of yeast (opfGWT1-expressing yeast; opfGWT1-expressing yeast, compound at 50 μg/ml) | culture turbidity at 660 nm (opfGWT1-expressing yeast; compound 6.25 μg/ml) | culture turbidity at 660 nm (opfGWT1-expressing yeast; compound 12.5 μg/ml) | culture turbidity at 660 nm (opfGWT1-expressing yeast; compound 25 μg/ml) | culture turbidity at 660 nm (opfGWT1-expressing yeast; compound 50 μg/ml) | antimalarial activity (infection rate of red blood cells) [1]
CCCCc1ccc(Cc2nccc3ccccc23)cc1 [compound (1), 1-(4-butylbenzyl) isoquinoline] | ~85 | completely nonviable | 0.7370 | 0.6670 | 0.1140 | 0.0420 | ~50 | completely nonviable | 0.6990 | 0.6910 | 0.3630 | 0.0530 | –
CCCCc1ccc(Cc2nccc3ccccc23)c(O)c1 [compound (3), 5-butyl-2-(1-isoquinolylmethyl) phenol] | – | – | – | – | – | – | – | – | – | – | – | – | strong antimalarial activity
COc1cccnc1Cc1ccc(Br)cc1F [compound (4), 2-(4-bromo-2-fluorobenzyl)-3-methoxypyridine] | – | – | – | – | – | – | – | – | – | – | – | – | lowest activity
